US20090253662A1, “GENETIC RISK ASSESSMENT IN HEART FAILURE: IMPACT OF GENETIC VARIATION OF ALDOSTERONE SYNTHASE PROMOTER POLYMORPHISM” (NitroMed, Inc., priority 2005, published 2009)
Where a name gives a salt, the structure may show the parent alone.

Columns and labels:
[1] = system: black cohorts with hypertension; conditions: cited from earlier work
[2] = system: post myocardial infarction; conditions: addition post myocardial infarction; cited from earlier work
[3] = cited from earlier work
[4] = system: subjects with severe heart failure; conditions: addition of spironolactone; cited from earlier work
[5] = system: African American subjects with heart failure; assay: Left ventricular remodeling by transthoracic echocardiography at baseline and six months; type: in vivo, human
Description: Subjects were followed to an endpoint of death or heart failure hospitalization. Quality of Life Assessment was performed by the Minnesota Living with Heart Failure Questionnaire at baseline and at the six month visit. Left ventricular function was assessed transthoracic echocardiography at baseline and six months. The primary endpoint for A-HeFT was a composite weighted score with three components: mortality, heart failure hospitalization and change in quality of life. Left ventricular remodeling was investigated in a subset of A-HeFT subjects by transthoracic echocardiography at baseline and at six months. Event free survival was compared by genotype class by Kaplan-Meier log rank analysis, using a linear model that predicts an intermediate phenotype for heterozygotes. Continuous variables such as composite scores were compared by genotype class by linear ANOVA. For the interaction of aldosterone genotype and the impact of therapy, outcomes analyzed by genotype were compared first overall and then separately by treatment subset, fixed combination of isosorbide dinitrate and hydralazine versus placebo.

## COC(=O)[C@@H]1CC2=CC(=O)CC[C@]2(C)[C@@]23O[C@@H]2C[C@@]2(C)[C@@H](CC[C@@]24CCC(=O)O4)[C@H]13 [eplerenone]
[1]
  effectiveness versus angiotensin II antagonists: more effective than angiotensin II antagonists
[2]
  survival: improves survival

## O=[N+]([O-])O[C@H]1CO[C@H]2[C@@H]1OC[C@H]2O[N+](=O)[O-] [isosorbide dinitrate, 1,4,3,6-dianhydro-D-glucitol-2,5-dinitrate]
[3]; organic solvents such as ethanol, ether and chloroform
  solubility in organic solvents: freely soluble
[3]
  solubility in water: sparingly soluble

## CC(=O)S[C@@H]1CC2=CC(=O)CC[C@]2(C)[C@H]2CC[C@@]3(C)[C@@H](CC[C@@]34CCC(=O)O4)[C@H]12 [spironolactone]
[4]
  survival: improved survival
[5]; -344 CC genotype
  Left Ventricular Diastolic Diameter (LVDD) at 6 Months: 6.5 ± 0.8 cm
  Left Ventricular Ejection Fraction (LVEF) at 6 Months: 32 ± 6%
[5]; -344 TC genotype
  Left Ventricular Diastolic Diameter (LVDD) at 6 Months: 6.3 ± 1.5 cm
[5]; -344 TT genotype
  Left Ventricular Diastolic Diameter (LVDD) at 6 Months: 6.2 ± 1.4 cm

## NNc1nncc2ccccc12 [Hydralazine hydrochloride, hydralazine hydrochloride]
[3]; alcohol
  solubility in alcohol: slightly soluble
[3]; ether
  solubility in ether: very slightly soluble
[3]
  solubility in water: soluble
